Active and inactive are the calls of the source. No rule for the calls is given here.
Test system: CCRIS mutagenicity, Ames/micronucleus/aberration tests
Assay: CCRIS mutagenicity studies
[1] = Test System: AMES SALMONELLA TYPHIMURIUM, Strain/Indicator: TA98, Metabolic Activation: HAMSTER, LIVER, S-9, AROCLOR 1254 (10%), Method: PREINCUBATION
[2] = Test System: AMES SALMONELLA TYPHIMURIUM, Strain/Indicator: TA98, Metabolic Activation: NONE, Method: PREINCUBATION
[3] = Test System: AMES SALMONELLA TYPHIMURIUM, Strain/Indicator: TA98, Metabolic Activation: RAT, LIVER, S-9, AROCLOR 1254 (10%), Method: PREINCUBATION
[4] = Test System: AMES SALMONELLA TYPHIMURIUM, Strain/Indicator: TA100, Metabolic Activation: HAMSTER, LIVER, S-9, AROCLOR 1254 (10%), Method: PREINCUBATION
[5] = Test System: AMES SALMONELLA TYPHIMURIUM, Strain/Indicator: TA100, Metabolic Activation: NONE, Method: PREINCUBATION
[6] = Test System: AMES SALMONELLA TYPHIMURIUM, Strain/Indicator: TA100, Metabolic Activation: RAT, LIVER, S-9, AROCLOR 1254 (10%), Method: PREINCUBATION
[7] = Test System: AMES SALMONELLA TYPHIMURIUM, Strain/Indicator: TA1535, Metabolic Activation: HAMSTER, LIVER, S-9, AROCLOR 1254 (10%), Method: PREINCUBATION
[8] = Test System: AMES SALMONELLA TYPHIMURIUM, Strain/Indicator: TA1535, Metabolic Activation: NONE, Method: PREINCUBATION
[9] = Test System: AMES SALMONELLA TYPHIMURIUM, Strain/Indicator: TA1535, Metabolic Activation: RAT, LIVER, S-9, AROCLOR 1254 (10%), Method: PREINCUBATION
[10] = Test System: MOUSE LYMPHOMA, Strain/Indicator: L5178Y (TK+/TK-), Metabolic Activation: RAT, LIVER, S-9, AROCLOR 1254, Method: SUSPENSION/PLATE
[11] = Test System: AMES SALMONELLA TYPHIMURIUM, Strain/Indicator: TA1537, Metabolic Activation: HAMSTER, LIVER, S-9, AROCLOR 1254 (10%), Method: PREINCUBATION
[12] = Test System: AMES SALMONELLA TYPHIMURIUM, Strain/Indicator: TA1537, Metabolic Activation: NONE, Method: PREINCUBATION
[13] = Test System: AMES SALMONELLA TYPHIMURIUM, Strain/Indicator: TA1537, Metabolic Activation: RAT, LIVER, S-9, AROCLOR 1254 (10%), Method: PREINCUBATION

SMILES: CNc1ccc(N(CCO)CCO)cc1[N+](=O)[O-]
- mutagenic call (End Point: IN VITRO CHROMOSOMAL ABERRATIONS, Test System: CHO-LB CELLS, Metabolic Activation: NONE): inactive; negative
- mutagenic call (End Point: IN VITRO CHROMOSOMAL ABERRATIONS, Test System: CHO-LB CELLS, Metabolic Activation: RAT, LIVER, S-9, AROCLOR 1254): active; positive
- mutagenic call (Test System: AMES SALMONELLA TYPHIMURIUM, Strain/Indicator: TA97, Metabolic Activation: HAMSTER, LIVER, S-9, AROCLOR 1254 (10%), Method: PREINCUBATION): active; positive
- mutagenic call (Test System: AMES SALMONELLA TYPHIMURIUM, Strain/Indicator: TA97, Metabolic Activation: HAMSTER, LIVER, S-9, AROCLOR 1254, Method: PREINCUBATION): active; positive
- mutagenic call (Test System: AMES SALMONELLA TYPHIMURIUM, Strain/Indicator: TA97, Metabolic Activation: NONE, Method: PREINCUBATION): active; positive
- mutagenic call (Test System: AMES SALMONELLA TYPHIMURIUM, Strain/Indicator: TA97, Metabolic Activation: RAT, LIVER, S-9, AROCLOR 1254 (10%), Method: PREINCUBATION): active; positive
- mutagenic call (Test System: AMES SALMONELLA TYPHIMURIUM, Strain/Indicator: TA97, Metabolic Activation: RAT, LIVER, S-9, AROCLOR 1254, Method: PREINCUBATION): active; positive
- mutagenic call [1]: active; positive
- mutagenic call (Test System: AMES SALMONELLA TYPHIMURIUM, Strain/Indicator: TA98, Metabolic Activation: HAMSTER, LIVER, S-9, AROCLOR 1254, Method: PREINCUBATION): active; positive
- mutagenic call [2]: active; positive
- mutagenic call (Test System: AMES SALMONELLA TYPHIMURIUM, Strain/Indicator: TA98, Metabolic Activation: NONE, Method: STANDARD PLATE): inactive; negative
- mutagenic call [3]: active; positive
- mutagenic call (Test System: AMES SALMONELLA TYPHIMURIUM, Strain/Indicator: TA98, Metabolic Activation: RAT, LIVER, S-9, AROCLOR 1254, Method: PREINCUBATION): active; positive
- mutagenic call (Test System: AMES SALMONELLA TYPHIMURIUM, Strain/Indicator: TA98, Metabolic Activation: RAT, LIVER, S-9, AROCLOR 1254, Method: STANDARD PLATE): inactive; negative
- mutagenic call [4]: active; positive
- mutagenic call (Test System: AMES SALMONELLA TYPHIMURIUM, Strain/Indicator: TA100, Metabolic Activation: HAMSTER, LIVER, S-9, AROCLOR 1254, Method: PREINCUBATION): active; positive
- mutagenic call [5]: active; positive
- mutagenic call (Test System: AMES SALMONELLA TYPHIMURIUM, Strain/Indicator: TA100, Metabolic Activation: NONE, Method: STANDARD PLATE): inactive; negative
- mutagenic call [6]: active; positive
- mutagenic call (Test System: AMES SALMONELLA TYPHIMURIUM, Strain/Indicator: TA100, Metabolic Activation: RAT, LIVER, S-9, AROCLOR 1254, Method: PREINCUBATION): active; positive
- mutagenic call (Test System: AMES SALMONELLA TYPHIMURIUM, Strain/Indicator: TA100, Metabolic Activation: RAT, LIVER, S-9, AROCLOR 1254, Method: STANDARD PLATE): inactive; negative
- mutagenic call [7]: inactive; negative
- mutagenic call (Test System: AMES SALMONELLA TYPHIMURIUM, Strain/Indicator: TA1535, Metabolic Activation: HAMSTER, LIVER, S-9, AROCLOR 1254, Method: PREINCUBATION): inactive; negative
- mutagenic call [8]: inactive; negative
- mutagenic call (Test System: AMES SALMONELLA TYPHIMURIUM, Strain/Indicator: TA1535, Metabolic Activation: NONE, Method: STANDARD PLATE): inactive; negative
- mutagenic call [9]: inactive; negative
- mutagenic call (Test System: AMES SALMONELLA TYPHIMURIUM, Strain/Indicator: TA1535, Metabolic Activation: RAT, LIVER, S-9, AROCLOR 1254, Method: PREINCUBATION): inactive; negative
- mutagenic call (Test System: AMES SALMONELLA TYPHIMURIUM, Strain/Indicator: TA1535, Metabolic Activation: RAT, LIVER, S-9, AROCLOR 1254, Method: STANDARD PLATE): inactive; negative
- mutagenic call (Test System: AMES SALMONELLA TYPHIMURIUM, Strain/Indicator: TA1537, Metabolic Activation: NONE, Method: STANDARD PLATE): inactive; negative
- mutagenic call (Test System: AMES SALMONELLA TYPHIMURIUM, Strain/Indicator: TA1537, Metabolic Activation: RAT, LIVER, S-9, AROCLOR 1254, Method: STANDARD PLATE): inactive; negative
- mutagenic call (Test System: E. COLI, Strain/Indicator: WP2 UVRA, Metabolic Activation: NONE, Method: STANDARD PLATE): inactive; negative
- mutagenic call (Test System: E. COLI, Strain/Indicator: WP2 UVRA, Metabolic Activation: RAT, LIVER, S-9, AROCLOR 1254, Method: STANDARD PLATE): inactive; negative
- mutagenic call [10]: inactive; negative
- mutagenic call (Test System: UDS MONKEY PRIMARY HEPATOCYTES, Strain/Indicator: THY INCORP (NON-S-PHASE), Metabolic Activation: NONE, Method: AUTORADIOGRAPHY): active; positive
- mutagenic call (Test System: UDS RODENT PRIMARY HEPATOCYTES, Strain/Indicator: THY INCORP (NON-S-PHASE), Metabolic Activation: NONE, Method: AUTORADIOGRAPHY): active; positive

SMILES: Cc1ccc(N=Nc2c(O)ccc3ccccc23)c([N+](=O)[O-])c1
- mutagenic call [1]: active; positive
- mutagenic call [2]: inactive; negative
- mutagenic call [3]: inactive; negative
- mutagenic call [4]: active; positive
- mutagenic call [5]: inactive; negative
- mutagenic call [7]: inactive; negative
- mutagenic call [8]: inactive; negative
- mutagenic call [9]: inactive; negative
- mutagenic call [11]: inactive; negative
- mutagenic call [12]: inactive; negative
- mutagenic call [13]: inactive; negative

SMILES: Cc1cccc2c3c(c4cc5ccccc5cc4c12)O3
- mutagenic call [2]: active; positive

SMILES: CCCNC(=O)NS(=O)(=O)c1ccc(Cl)cc1
- mutagenic call (End Point: IN VITRO CHROMOSOMAL ABERRATIONS, Test System: CHO CELLS, Metabolic Activation: NONE): inactive; negative
- mutagenic call (End Point: IN VITRO CHROMOSOMAL ABERRATIONS, Test System: CHO CELLS, Metabolic Activation: RAT, LIVER, S-9, AROCLOR 1254): inactive; negative
- mutagenic call [1]: inactive; negative
- mutagenic call [2]: inactive; negative
- mutagenic call [3]: inactive; negative
- mutagenic call [4]: inactive; negative
- mutagenic call [5]: inactive; negative
- mutagenic call [6]: inactive; negative
- mutagenic call [7]: inactive; negative
- mutagenic call [8]: inactive; negative
- mutagenic call [9]: inactive; negative
- mutagenic call [11]: inactive; negative
- mutagenic call [12]: inactive; negative
- mutagenic call [13]: inactive; negative
- mutagenic call (Test System: MOUSE LYMPHOMA, Strain/Indicator: L5178Y (TK+/TK-), Metabolic Activation: NONE, Method: SUSPENSION/PLATE): inactive; negative
- mutagenic call [10]: inactive; negative
